According to patent publication US7375180B2, “Methods and compositions related to IRM compounds and Toll-like receptor 8” (3M Innovative Properties Company, priority 2003, dated 2008):

How the values were obtained:
TLR8 [1] = molecular target: T1, TLR8 (Homo sapiens, UniProt Q9NR97); assay: NF-κB-luciferase reporter activation in HEK293-TLR8 cells, 10 μM IRM (Example 1); assay type: cell-based; set-up: expressed in transfected cells; host or cells: HEK293 (ATCC CRL-1573), pIRES vector, G-418 selected, co-transfected with NFkB-luc reporter; conditions: for Fold Increase Over DMSO Control, HEK293-TLR8: 16 hours, luciferase signal, TLR8-transfected cells; for Fold Increase Over DMSO Control, HEK293-TLR8 / HEK293-vector: ratio of TLR8-transfected to vector-transfected cells
T1 sequence (Q9NR97 27-1041): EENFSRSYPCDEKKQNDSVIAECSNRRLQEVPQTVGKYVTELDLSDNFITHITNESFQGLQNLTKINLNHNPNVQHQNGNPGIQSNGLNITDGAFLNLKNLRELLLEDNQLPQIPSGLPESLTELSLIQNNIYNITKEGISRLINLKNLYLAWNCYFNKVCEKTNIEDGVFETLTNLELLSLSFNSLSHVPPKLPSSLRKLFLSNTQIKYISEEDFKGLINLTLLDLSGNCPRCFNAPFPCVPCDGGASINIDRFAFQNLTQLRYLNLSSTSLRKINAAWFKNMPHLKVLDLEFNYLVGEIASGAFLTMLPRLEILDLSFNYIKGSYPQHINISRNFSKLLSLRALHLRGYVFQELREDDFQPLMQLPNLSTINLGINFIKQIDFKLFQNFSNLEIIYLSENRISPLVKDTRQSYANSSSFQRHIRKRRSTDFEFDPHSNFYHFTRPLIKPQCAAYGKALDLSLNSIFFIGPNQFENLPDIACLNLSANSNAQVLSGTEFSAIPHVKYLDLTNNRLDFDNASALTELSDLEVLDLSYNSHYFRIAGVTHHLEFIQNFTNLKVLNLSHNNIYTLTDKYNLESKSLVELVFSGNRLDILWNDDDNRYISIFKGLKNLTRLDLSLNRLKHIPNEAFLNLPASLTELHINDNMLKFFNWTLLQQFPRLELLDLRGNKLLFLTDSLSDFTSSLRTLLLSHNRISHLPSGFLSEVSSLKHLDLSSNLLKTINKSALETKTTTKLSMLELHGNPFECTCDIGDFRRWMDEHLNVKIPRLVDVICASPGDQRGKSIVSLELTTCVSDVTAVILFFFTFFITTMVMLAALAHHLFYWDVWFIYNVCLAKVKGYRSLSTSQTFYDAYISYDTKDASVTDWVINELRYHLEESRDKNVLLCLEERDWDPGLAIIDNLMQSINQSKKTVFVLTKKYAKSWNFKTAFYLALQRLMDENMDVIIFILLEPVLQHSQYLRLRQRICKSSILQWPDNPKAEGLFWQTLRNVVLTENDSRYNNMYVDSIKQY
From the text: (§1) HEK293 cells, derived from human embryonic kidney cells, may be co-transfected with (1) either a control vector (HEK293-vector) or a vector construct including human TLR8 (HEK293-TLR8), and (2) an NF-κB-luciferase reporter. The NF-κB-luciferase reporter provides a luciferase signal upon NF-κB activation in a transfected cell. Thus, TLR8-mediated NF-κB activity can be detected by exposing the cells transfected with vector and the cells transfected with the TLR8 construct to a test compound, then comparing the luciferase signal of the vector-transfected cells with the luciferase signal of the cells transfected with the TLR8 construct.
(§2) HEK293 cells were cultured in 90% Minimum Essential Medium (MEM) with 2 mM L-glutamine and Earle's Balanced Salt Solution (Invitrogen Corp., Rockville, Md.) adjusted to contain 1.5 g/L sodium bicarbonate, 0.1 mM non-essential amino acids, and 1.0 mM sodium pyruvate; 10% heat-inactivated fetal calf serum. The cells were incubated at 37° C., 8% CO2.
(§3) The cells were co-transfected with (1) pIRES (BD Biosciences Clontech, Palo Alto, Calif.) either (a) unmodified (HEK293-vector) or (b) containing human TLR8 (HEK293-TLR8), and (2) NFkB-luc reporter (Stratagene, La Jolla, Calif.) in a 10:1 ratio with Fugene 6 transfection reagent (Roche Diagnostics Corp., Indianapolis, Ind.) following the manufacturer's instructions.
(§4) The cells were stimulated with 1 μL of IRM compounds at 1 mM in DMSO (final IRM concentration of 10 μM) or 1 μL DMSO as a control. The plates were then incubated an additional 16 hours at 37° C., 5% CO2. Luminescence was measured on an LMAX luminometer (Molecular Devices Corp., Sunnyvale, Calif.).

HEK293-vector = assay: NF-κB-luciferase reporter activation in HEK293-vector control cells, 10 μM IRM (Example 1); assay type: cell-based, human; conditions: 16 hours, luciferase signal, vector-transfected cells; for fold induction at 10 µM: Homo sapiens, read-out: Fold Increase Over DMSO Control, HEK293-vector
From the text: as §1, §2, §3, §4

TLR8 [2] = molecular target: T1, TLR8; assay: Dose dependent TLR8-mediated NF-κB-luciferase response in HEK293 cells transfected with TLR8 (Example 5); assay type: cell-based; set-up: expressed in transfected cells; host or cells: HEK293 (ATCC CRL-1573), pIRES vector, G-418 selected, co-transfected with NFkB-luc reporter
Experimental: Twenty-four hours before transfection, HEK293 cells were adhered to a 10 cm dish (Corning 430167, Corning Inc., Corning, N.Y.) at 37° C., 8% CO2. The cells were co-transfected with (1) pIRES (BD Biosciences Clontech, Palo Alto, Calif.) either (a) unmodified (HEK293-vector) or (b) containing human TLR8 (HEK293-TLR8), and (2) NFkB-luc reporter (Stratagene, La Jolla, Calif.) in a 10:1 ratio with Fugene 6 transfection reagent (Roche Diagnostics Corp., Indianapolis, Ind.) following the manufacturer's instructions. The plates were incubated for 24 hours following transfection and then selected in G-418 (400 μg/mL) for two weeks. The G-418-resistant cells containing either the TLR8 or empty vector were expanded in HEK293 media supplemented with G-418 for stimulation experiments.
The transfected cells were plated in white opaque 96 well plates (Costar 3917, Corning Inc., Corning, N.Y.) at a concentration of 5×10^4 cells per well in 100 μL of HEK293 media and incubated at 37° C., 8% CO2 for 4 hours. The cells were stimulated with 1 μL of IRM compounds at 1 mM in DMSO (final IRM concentration of 10 μM) or 1 μL DMSO as a control. The plates were then incubated an additional 16 hours at 37° C., 5% CO2. Luminescence was measured on an LMAX luminometer (Molecular Devices Corp., Sunnyvale, Calif.).
HEK293 cells were transfected as described in Example 1. HEK293 cultures were incubated with IRM compound or a negative control compound (1,5-dihydro-1-(2-methylpropyl)-4H-imidazo[4,5-c]quinolin-4-one, U.S. Pat. No. 4,698,348, Example 71) at concentrations of 0.1 μM, 0.3 μM, 1.0 μM, 3.0 μM, 10 μM, or 30 μM, or a vehicle control. Cultures were otherwise incubated as described in Example 1. Luciferase signals were read in RLU (Relative Luciferase Units) as described in Example 1.

Compound | Fold Increase Over DMSO Control, HEK293-TLR8 (TLR8 [1]) [fold] | Fold Increase Over DMSO Control, HEK293-TLR8 / HEK293-vector (TLR8 [1]) | fold induction at 10 µM (HEK293-vector) | Fold Increase Over DMSO Control, HEK293-vector (HEK293-vector) [fold] | Fold increase over vehicle (TLR8 [2]; 0.1 μM) [fold] | Fold increase over vehicle (TLR8 [2]; 0.3 μM) [fold] | Fold increase over vehicle (TLR8 [2]; 1.0 μM) [fold] | Fold increase over vehicle (TLR8 [2]; 3.0 μM) [fold] | Fold increase over vehicle (TLR8 [2]; 10 μM) [fold] | Fold increase over vehicle (TLR8 [2]; 30 μM) [fold]
CCOCc1nc2c(N)nc3c(c2n1CC(C)(C)O)CCCC3 [IRM 1, 4-amino-2-ethoxymethyl-α,α-dimethyl-6,7,8,9-tetrahydro-1H-imidazo[4,5-c]quinoline-1-ethanol] | 8.64 | 10.2 | 0.85 | – | – | – | – | – | – | –
Nc1nc2ccccc2c2c1ncn2CCCCNC(=O)c1ccccc1Oc1ccccc1 [IRM 7, N^1-[4-(4-amino-1H-imidazo[4,5-c]quinolin-1-yl)butyl]-2-phenoxybenzamide] | 10.69 | 10.5 | 1.02 | – | – | – | – | – | – | –
CCCCc1nc2c(N)nc3ccccc3c2n1CC(C)(C)CNC(=O)c1ccccc1 [IRM 15, N-[3-(4-amino-2-butyl-1H-imidazo[4,5-c]quinolin-1-yl)-2,2-dimethylpropyl]benzamide] | 2.14 | 2.7 | 0.78 | – | – | – | – | – | – | –
CCOCc1nc2c(N)nc3ccccc3c2n1CCOCCNC(=O)NC1CCCCC1 [IRM 13, N-(2-{2-[4-amino-2-(ethoxymethyl)-1H-imidazo[4,5-c]quinolin-1-yl]ethoxy}ethyl)-n′-cyclohexylurea] | 2.33 | 2.3 | – | 0.99 | – | – | – | – | – | –
CCCCc1nc2c(N)nc3cccnc3c2n1CCNC(=O)C(N)CC(C)C (stereo not drawn) [IRM 6, N^1-[2-(4-amino-2-butyl-1H-imidazo[4,5-c][1,5]naphthyridin-1-yl)ethyl]-2-amino-4-methylpentanamide] | 9.24 | 7.8 | 1.19 | – | – | – | – | – | – | –
COCCc1nc2c(N)nc3ccccc3c2n1CC(C)(C)O [IRM 2, 4-amino-α,α-dimethyl-2-methoxyethyl-1H-imidazo[4,5-c]quinoline-1-ethanol] | 10.18 | 8.8 | – | 1.16 | – | – | – | – | – | –
CCOCc1nc2c(N)nc3cc(-c4cccnc4)ccc3c2n1CC(C)(C)O [IRM51, 1-[4-amino-2-(ethoxymethyl)-7-(pyridin-3-yl)-1H-imidazo[4,5-c]quinolin-1-yl]-2-methylpropan-2-ol] | – | – | – | – | 1.9 | 3.8 | 11.9 | 15.0 | 21.5 | 22.4
COCCc1nc2c(N)nc3cc(-c4cccc(NS(C)(=O)=O)c4)ccc3c2n1CC(C)(C)O [IRM50, N-{3-[4-amino-1-(2-hydroxy-2-methylpropyl)-2-(methoxyethyl)-1H-imidazo[4,5-c]quinolin-7-yl]phenyl}methanesulfonamide] | – | – | – | – | 1.8 | 2.1 | 2.2 | 4.1 | 11.7 | 21.1
CCOCc1nc2c(N)nc3cc(-c4ccc(CO)cc4)ccc3c2n1CC1COC(C)(C)O1 (stereo not drawn) [IRM53, 1-[(2,2-dimethyl-1,3-dioxolan-4-yl)methyl]-2-(ethoxymethyl)-7-(4-hydroxymethylphenyl)-1H-imidazo[4,5-c]quinolin-4-amine] | – | – | – | – | 0.9 | 1.0 | 1.4 | 2.0 | 3.6 | 7.7
CCOCc1nc2c(N)nc3cc(-c4ccncc4)ccc3c2n1CC(C)(C)O [IRM56, 1-[4-amino-2-ethoxymethyl-7-(pyridin-4-yl)-1H-imidazo[4,5-c]quinolin-1-yl]-2-methylpropan-2-ol] | – | – | – | – | 1.2 | 1.8 | 5.9 | 10.0 | 24.4 | 27.9
CCOCC(=O)NC(C)(C)Cn1c(COCC)nc2c(N)nc3ccccc3c21 [IRM43, N-{2-[4-amino-2-(ethoxymethyl)-1H-imidazo[4,5-c]quinolin-1-yl]-1,1-dimethylethyl}-2-ethoxyacetamide] | – | – | – | – | 2.3 | 2.3 | 3.3 | 2.1 | 5.6 | 17.0
